Assay results reported in paper PMC11044151, “Development of Half-Sandwich Ru, Os, Rh, and Ir Complexes Bearing the Pyridine-2-ylmethanimine Bidentate Ligand Derived from 7-Chloroquinazolin-4(3H)-one with Enhanced Antiproliferative Activity” (ACS Omega, 2024).

Assays:
SW620 = assay: Neutral red uptake antiproliferative assay, SW620; type: cell-based, human; details: for IC50: exposure time 72 h, n = 3, 95% CI given; for activity factor IC50(1)/IC50(3a–4d), SW620: vs corresponding amine (R)-1 or (S)-1, 72 h
Excerpt: (§1) To assess the impact of conjugating half-sandwich complexes with amines 1 via an imine-pyridine ligand on biological activity, we examined the antiproliferative potential of (R)- and (S)-1 and organometallic conjugates 3a–d and 4a–d in selected human cancer cell lines: alveolar basal epithelial cell adenocarcinoma (A549), colorectal adenocarcinomas (Colo205 and SW620), colorectal carcinoma (HCT116), hepatocellular carcinoma (HepG2), and breast adenocarcinoma (MCF7). The choice of cell lines was dictated by results of previously published clinical trials on ispinesib.[49],[50]
(§2) Cell lines used in this study were purchased from the American Type Culture Collection via LGC Standards. Human normal lung fibroblasts (MRC-5), alveolar basal epithelial cell adenocarcinoma (A549), colorectal adenocarcinoma (Colo205), hepatocellular carcinoma (HepG2), breast adenocarcinoma (MCF7), and colorectal adenocarcinoma (SW620) and its MDR variants[55] were cultured in standard conditions (37 °C, 5% CO2, 100% relative humidity) in high glucose DMEM medium supplemented with GlutaMax, HEPES (ThermoFisher Scientific) and 10% fetal bovine serum (EURx, Poland). All cell lines were tested for Mycoplasma contamination using a MycoProbe mycoplasma detection kit (R&D System).
(§3) For this purpose, neutral red uptake assay was performed. 10^4 of cells were seeded per well of a 96-well plate and left overnight to allow cells to attach to the surface. Then, the cells were exposed to a desired concentration of tested compounds. Stock solutions were prepared in DMSO and were used immediately after preparation. The final concentration of DMSO was constant and nontoxic (0.1% v/v). After 70 h of culture, neutral red was added to the final concentration of 1 mM. After 2 h of incubation with the dye, the medium was aspirated and cells were washed with ice-cold PBS. The dye was released using 100 μL of the solubilizer (1% acetic acid in 50% ethanol) on an orbital shaker (10 min). The absorbance at 540 nm was measured using an EnVision multilabel plate reader (PerkinElmer). […] The IC90 and IC50 parameters were calculated using GraphPad Prism v9 software using the five-parameter nonlinear logistic regression model.

SW620Mito = assay: Neutral red uptake antiproliferative assay, MDR line SW620Mito; type: cell-based, human; details: for IC50: exposure time 72 h, n = 3, ABCG2-overexpressing MDR line; for activity factor IC50(1)/IC50(3a–4d), SW620Mito: vs corresponding amine (R)-1 or (S)-1, 72 h
Excerpt: (§4) Next, we evaluated the cytotoxicity of the synthesized complexes toward the panel of six multidrug-resistant (MDR) cell lines derived from SW620 and characterized by the overexpression of various ABC proteins, namely, ABCG2 (SW620C and SW620Mito), ABCC1 (SW620M and SW620E), and ABCB1 (SW620D, SW620E, and SW620V) (Table 3, Figures S29 and S32). […] The activity of the complexes derived from the ligand (S)-2 is also considerably higher than that of the compounds containing the ligand (R)-2. The cytotoxicity of both rhodium 4c and iridium 4d complexes is higher than that of amine (S)-1. In the case of 4c, the increase in cytotoxicity is low, with the highest value of 3.7-fold for the SW620Mito line. […] Compound 4d also exerts a 2.1- and 2.6-fold higher cytotoxicity than […] against the SW620C and SW620D lines.
(§5) For this purpose, neutral red uptake assay was performed. […] The results were presented as a percentage of control.

SW620 cells = assay: Cell cycle distribution by flow cytometry, SW620; type: cell-based, human; details: concentration equal to IC75 of (S)-1 / (R)-1, mean ± SEM, n = 3; for Cell cycle fraction G1, 24 h / Cell cycle fraction G2/M, 24 h / Cell cycle fraction S, 24 h: SW620, 24 h; for Cell cycle fraction G1, 48 h / Cell cycle fraction G2/M, 48 h / Cell cycle fraction S, 48 h: SW620, 48 h
Description: Ispinesib leads to the formation of monopolar mitotic spindles and a blockade of chromosome segregation in cancer cells. Using flow cytometry, we assessed the cell cycle distribution in the SW620 and SW620E cells exposed to the studied compounds for 24 and 48 h. […] Both complexes, 3c and 3d, decrease the percentage of cells in the G1/G0 phase and increase the percentage in the S and G2/M phases. […] Furthermore, prolonged exposure to the compounds increases the percentage of cells in the G2/M phase, with the most intensive effect observed for 3c and 3d.
SW620 and SW620E cells lines (vulnerable and resistant variants, respectively) were seeded in 6-well plates at a density of 10^5 cells per well. […] After 24 h, the cells were trypsinized and fixed with ice-cold 70% v/v ethanol. The cells were stained with 75 μM propidium iodide with 50 Kunitz units of RNase A in PBS for 30 min at 37 °C. All samples were analyzed using a LSRII flow cytometer (Becton Dickinson) at a PE channel ([…]). Cell cycle phase distribution was determined using a built-in cell cycle module (Watson pragmatic algorithm) by FlowJo 7.6.1 software.

HCT116 = assay: cells; details: for IC50: read-out: IC50 HCT116, exposure time 72 h, n = 3, 95% CI given; for activity factor IC50(1)/IC50(3a–4d), HCT116: vs corresponding amine (R)-1 or (S)-1, 72 h
Excerpt: as §1, §3

A549 = assay: Neutral red uptake antiproliferative assay, A549; details: for IC50: read-out: IC50 A549, exposure time 72 h, n = 3, 95% CI given; for activity factor IC50(1)/IC50(3a–4d), A549: vs corresponding amine (R)-1 or (S)-1, 72 h
Excerpt: as §1, §2, §3

SW620D = assay: Neutral red uptake antiproliferative assay, MDR line SW620D; type: cell-based, human; details: for IC50: exposure time 72 h, n = 3, ABCB1-overexpressing MDR line; for activity factor IC50(1)/IC50(3a–4d), SW620D: vs corresponding amine (R)-1 or (S)-1, 72 h
Excerpt: as §4, §5

SW620E = assay: Neutral red uptake antiproliferative assay, MDR line SW620E; type: cell-based, human; details: for IC50: exposure time 72 h, n = 3, ABCC1- and ABCB1-overexpressing MDR line; for activity factor IC50(1)/IC50(3a–4d), SW620E: vs corresponding amine (R)-1 or (S)-1, 72 h
Excerpt: as §4, §5

SW620M = assay: Neutral red uptake antiproliferative assay, MDR line SW620M; type: cell-based, human; details: for IC50: exposure time 72 h, n = 3, ABCC1-overexpressing MDR line; for activity factor IC50(1)/IC50(3a–4d), SW620M: vs corresponding amine (R)-1 or (S)-1, 72 h
Excerpt: as §4, §5

SW620V = assay: Neutral red uptake antiproliferative assay, MDR line SW620V; type: cell-based, human; details: for IC50: exposure time 72 h, n = 3, ABCB1-overexpressing MDR line; for activity factor IC50(1)/IC50(3a–4d), SW620V: vs corresponding amine (R)-1 or (S)-1, 72 h
Excerpt: as §4, §5

SW620C = assay: Neutral red uptake antiproliferative assay, MDR line SW620C; type: cell-based, human; details: for IC50: exposure time 72 h, n = 3, ABCG2-overexpressing MDR line; for activity factor IC50(1)/IC50(3a–4d), SW620C: vs corresponding amine (R)-1 or (S)-1, 72 h
Excerpt: as §4, §5

MCF7 = assay: cells; details: for IC50: read-out: IC50 MCF7, exposure time 72 h, n = 3, 95% CI given; for activity factor IC50(1)/IC50(3a–4d), MCF7: vs corresponding amine (R)-1 or (S)-1, 72 h
Excerpt: as §1, §2, §3

Colo205 = assay: cells; details: for IC50: read-out: IC50 Colo205, exposure time 72 h, n = 3, 95% CI given; for activity factor IC50(1)/IC50(3a–4d), Colo205: vs corresponding amine (R)-1 or (S)-1, 72 h
Excerpt: as §1, §2, §3

HepG2 = assay: cells; details: for IC50: read-out: IC50 HepG2, exposure time 72 h, n = 3, 95% CI given; for activity factor IC50(1)/IC50(3a–4d), HepG2: vs corresponding amine (R)-1 or (S)-1, 72 h
Excerpt: as §1, §2, §3

KSP = target: T1, KSP (Homo sapiens, UniProt P52732); assay: Kinesin ATPase inhibition (ATP hydrolysis) end-point assay; type: biochemical; details: 100 nM stated for ispinesib and (R)-1; concentration not restated for the complexes
T1 construct: purchased Cytoskeleton, Inc
T1 sequence (P52732 1-368 limits assumed): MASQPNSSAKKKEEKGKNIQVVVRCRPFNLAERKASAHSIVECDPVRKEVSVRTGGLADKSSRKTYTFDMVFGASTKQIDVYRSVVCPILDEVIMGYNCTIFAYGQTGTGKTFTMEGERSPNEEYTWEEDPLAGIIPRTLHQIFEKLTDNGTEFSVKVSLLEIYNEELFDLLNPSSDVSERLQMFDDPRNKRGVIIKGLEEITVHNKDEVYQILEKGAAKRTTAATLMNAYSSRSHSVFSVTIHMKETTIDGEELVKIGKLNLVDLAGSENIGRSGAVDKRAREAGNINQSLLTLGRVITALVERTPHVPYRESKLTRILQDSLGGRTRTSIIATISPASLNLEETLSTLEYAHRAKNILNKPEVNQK
Description: The mechanism of the anticancer activity of ispinesib is related to the inhibition of the activity of the KSP. Thus, we studied the synthesized compounds’ ability to inhibit KSP activity using the adenosine 5′-triphosphate (ATP) hydrolysis assay.
The potential kinesin modulatory activity of tested compounds was performed using a Kinesin ATPase end-point biochem kit (Cytoskeleton, Inc.). […] The experiment was performed according to the manufacturer’s instructions. One μg of tested kinesin (KSP) was used per reaction. Phosphate release was measured at the absorbance 650 nm using an EnVision multilabel plate reader (PerkinElmer).

IC50 (SW620)	activity factor IC50(1)/IC50(3a–4d), SW620 (SW620)	IC50 (SW620Mito)	activity factor IC50(1)/IC50(3a–4d), SW620Mito (SW620Mito)	IC50 (HCT116)	activity factor IC50(1)/IC50(3a–4d), HCT116 (HCT116)	IC50 (A549)	activity factor IC50(1)/IC50(3a–4d), A549 (A549)	IC50 (SW620D)	activity factor IC50(1)/IC50(3a–4d), SW620D (SW620D)	IC50 (SW620E)	activity factor IC50(1)/IC50(3a–4d), SW620E (SW620E)	IC50 (SW620M)	activity factor IC50(1)/IC50(3a–4d), SW620M (SW620M)	SMILES	Cell cycle fraction G1, 24 h (SW620 cells)	Cell cycle fraction G2/M, 24 h (SW620 cells)	Cell cycle fraction S, 24 h (SW620 cells)	Cell cycle fraction G1, 48 h (SW620 cells)	Cell cycle fraction G2/M, 48 h (SW620 cells)	Cell cycle fraction S, 48 h (SW620 cells)	also measured
2310 nM	(1.24)	3780 nM	(1.03)	823 nM	(9.79)	2190 nM	(3.22)	13500 nM	(0.307)	12800 nM	(0.316)	2450 nM	(1.41)	CC(C)[C@H](N=Cc1ccccn1)c1nc2cc(Cl)ccc2c(=O)n1Cc1ccccc1.Cc1ccc(C(C)C)cc1.F[P-](F)(F)(F)(F)F.[Cl-].[Os+2] [Compound 4b, [(cym)Os((S)-2)Cl]PF6]	51.8 ± 0.2%	32.6 ± 0.3%	15.0 ± 0.5%	41.8 ± 0.4%	42.7 ± 0.6%	14.9 ± 0.4%	increased cytotoxicity vs corresponding amine 1, HCT116 (HCT116): 10 fold; IC50 (SW620V): 9300 nM; activity factor IC50(1)/IC50(3a–4d), SW620V (SW620V): (0.370); IC50 (SW620C): 4540 nM; activity factor IC50(1)/IC50(3a–4d), SW620C (SW620C): (0.738); increased cytotoxicity vs corresponding amine 1, MCF7 (MCF7): 9 fold; IC50 (MCF7): 438 nM; activity factor IC50(1)/IC50(3a–4d), MCF7 (MCF7): (8.93); increased cytotoxicity vs corresponding amine 1, Colo205 (Colo205): 7 fold; IC50 (Colo205): 904 nM; activity factor IC50(1)/IC50(3a–4d), Colo205 (Colo205): (6.71); IC50 (HepG2): 1130 nM; activity factor IC50(1)/IC50(3a–4d), HepG2 (HepG2): (2.12)
2240 nM	(1.28)	1050 nM	(3.72)	2940 nM	(2.74)	3790 nM	(1.86)	6070 nM	(0.684)	6200 nM	(0.653)	2250 nM	(1.54)	CC(C)[C@H](N=Cc1ccccn1)c1nc2cc(Cl)ccc2c(=O)n1Cc1ccccc1.Cc1c(C)c(C)[c-](C)c1C.F[P-](F)(F)(F)(F)F.[Cl-].[Rh+3] [Compound 4c, [(Cp*)Rh((S)-2)Cl]PF6]	52.6 ± 1.9%	32.7 ± 2.0%	13.6 ± 0.3%	41.6 ± 1.0%	43.8 ± 1.4%	13.7 ± 0.4%	increase in cytotoxicity vs corresponding amine 1, SW620Mito (SW620Mito; rounded value): 3.7 fold; IC50 (SW620V): 2980 nM; activity factor IC50(1)/IC50(3a–4d), SW620V (SW620V): (1.15); IC50 (SW620C): 2970 nM; activity factor IC50(1)/IC50(3a–4d), SW620C (SW620C): (1.12); IC50 (MCF7): 1500 nM; activity factor IC50(1)/IC50(3a–4d), MCF7 (MCF7): (2.61); IC50 (Colo205): 2890 nM; activity factor IC50(1)/IC50(3a–4d), Colo205 (Colo205): (2.10); IC50 (HepG2): 1150 nM; activity factor IC50(1)/IC50(3a–4d), HepG2 (HepG2): (2.09)
														Cc1ccc(C(=O)N(CCCN)[C@@H](c2nc3cc(Cl)ccc3c(=O)n2Cc2ccccc2)C(C)C)cc1 [ispinesib, reference compound]							KSP residual activity (KSP): 2.2%
